From US20050014811A1, “Substituted benzimidazole compounds and their use for the treatment of cancer” (Aventis Pharma S.A., priority 2001, published 2005) come the findings set out here.

Where only a bound is given, the exact number is not on record here.

Experiment [1] addresses CDK4/CyclinD1 (Homo sapiens, UniProt P11802). Briefly: CDK4/CyclinD1 Flashplate assay, 96-well format, biotinylated-Rb peptide substrate. Type of experiment: biochemical. The method, boiled down: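 Biotinylated Rb peptide bound to streptavidin Flashplate; CDK4/CyclinD1 (70 ng/well) preincubated 30 min on ice with compound at 10, 3, 1, 0.3 and 0.1 μM final. Reaction with 1 μM cold ATP plus 33P-ATP for 45 min at RT; incorporated 33P counted, duplicates.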

In experiment [2] the target is CDK2/CyclinE (Homo sapiens, UniProt P24941). In words: CDK2/CyclinE Flashplate assay, 96-well format, biotinylated-Rb peptide substrate. Type of experiment: biochemical. As to the method:
This is a CDK2/CyclinE kinase assay in a 96-well Streptavidin-coated Flashplate with a biotinylated-Rb peptide substrate.
Each point is tested in duplicate
Biotinylated-Rb: Biotin-[…]-OH
• 1. Prepare substrate: 1 mg/ml solution made fresh in PBS. • 2. Add 4 μg per well to the Flashplate. • 3. Incubate for 2 hours at RT. • 4. From 10 mM inhibitor stocks in DMSO, make 1 mM, 300 μM, 100 μM, 30 μM and 10 μM series of dilution in DMSO. • 5. Was the Flashplate 3 times with 300 μl PBS to remove unbound peptide substrate. • 6. Add the CDK2/CyclinE kinase: 200 ng per well, in a volume of 90 μl in kinase buffer (except for “no enzyme” control wells). • 7. Add 1 μl per well of inhibitor to test 10 μM, 3 μM, 1 μM, 0.3 μM and 0.1 μM in final concentration per 100 μl in each well. • 8. Shake gently the Flashplate 1 minute. • 9. Incubate 30 minutes on wet ice. • 10. Initiate the reaction with 10 μl kinase buffer containing 1 μM final cold ATP and 1 μCi final ^33P-ATP per well. • 11. Shake gently the Flashplate 1 minute. • 12. Incubate 45 minutes at RT (no shaking). • 13. Wash the Flashplate 3 times with 300 μl PBS
14. Count to detect the incorporation of ^33P-ATP by the kinase to the Rb phosphorylation site.

CDK4/CyclinD1, sequence (P11802 whole entry, species assumed): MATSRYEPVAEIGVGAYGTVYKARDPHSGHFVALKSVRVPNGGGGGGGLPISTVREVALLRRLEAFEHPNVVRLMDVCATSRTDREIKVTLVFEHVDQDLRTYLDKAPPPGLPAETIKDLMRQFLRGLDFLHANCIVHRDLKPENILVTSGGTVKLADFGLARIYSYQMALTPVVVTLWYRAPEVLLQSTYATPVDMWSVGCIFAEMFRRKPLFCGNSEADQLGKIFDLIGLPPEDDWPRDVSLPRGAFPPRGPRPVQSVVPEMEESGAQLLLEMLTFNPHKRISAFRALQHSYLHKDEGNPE
CDK4/CyclinD1, sequence (P24385 whole entry partner, species assumed): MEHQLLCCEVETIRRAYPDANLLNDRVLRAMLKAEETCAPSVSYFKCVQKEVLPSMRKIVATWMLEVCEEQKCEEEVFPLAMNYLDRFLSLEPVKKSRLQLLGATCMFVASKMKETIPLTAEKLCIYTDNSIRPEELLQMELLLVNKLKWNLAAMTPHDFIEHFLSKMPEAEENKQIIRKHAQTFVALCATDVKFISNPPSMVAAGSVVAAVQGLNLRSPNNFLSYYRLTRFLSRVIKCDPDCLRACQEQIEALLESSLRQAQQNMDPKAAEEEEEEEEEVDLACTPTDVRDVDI

Regarding `CCC(CO)Nc1ccc(S(=O)(=O)Oc2ccc3[nH]c(NC(=O)OC)nc3c2)cc1` (centres unmarked) [Example 11, Methyl-5-(4-[1-ethyl, 2-hydroxyethyl]aminophenylsulfonyloxy)benzimidazole-2-carbamate], the IC50 in experiment [1] came out at 930 nM; in experiment [2], 500 nM.
For `COCCCNc1ccc(S(=O)(=O)Oc2ccc3[nH]c(NC(=O)OC)nc3c2)cc1` [Example 13, Methyl-5-(4-[3-methoxypropyl]aminophenyl-sulfonyloxy) benzimidazole-2-carbamate] the same measures were 400 nM and 2000 nM.
The like results for `CNc1ccc(S(=O)(=O)Oc2ccc3[nH]c(NC(=O)OC)nc3c2)cc1` [Example 14, Methyl-5-(4-methylaminophenylsulfonyloxy) benzimidazole-2-carbamate] were, in that order, 300 nM and 200 nM.
Take `COC(=O)Nc1nc2cc(OS(=O)(=O)c3ccc(NCCS(=O)(=O)O)cc3)ccc2[nH]1` [Example 15, Methyl-5-(4-[2-sulfonylethyl]aminophenylsulfonyloxy) benzimidazole-2-carbamate]: the IC50 is 300 nM in experiment [1] and 1800 nM in experiment [2].
Take `COC(=O)Nc1nc2cc(OS(=O)(=O)c3ccc(N)cc3)ccc2[nH]1` [Example 16, Methyl-5-(4-aminophenylsulfonyloxy)benzimidazole-2-carbamate]: the IC50 in experiment [1] was determined as 370 nM; in experiment [2], 1800 nM.
For `CCN(CC)CCNc1ccc(S(=O)(=O)Oc2ccc3[nH]c(NC(=O)OC)nc3c2)cc1` [Example 17, Methyl-5-(4-[2-diethylaminoethyl]aminophenyl-sulfonyloxy) benzimidazole-2-carbamate] the same measures were 6300 nM and 2000 nM.
For `COC(=O)Nc1nc2cc(OS(=O)(=O)c3ccc(NCC4CCCO4)cc3)ccc2[nH]1` (centres unmarked) [Example 18, Methyl-5-(4-[1-tetrathydrofurylmethyl]aminophenyl-sulfonyloxy) benzimidazole-2-carbamate] the same measures were 1300 nM and 600 nM.
For `COC(=O)Nc1nc2cc(OS(=O)(=O)c3ccc(NC4CCCC4)cc3)ccc2[nH]1` [Example 19, Methyl-5-(4-cyclopentylaminophenylsulfonyloxy) benzimidazole-2-carbamate], the concentration for half-maximal inhibition (IC50) in experiment [1] worked out at 2920 nM; in experiment [2], 700 nM.
As to `COC(=O)Nc1nc2cc(OS(=O)(=O)c3ccc(NCCc4ccccc4)cc3)ccc2[nH]1` [Example 20, Methyl-5-(4-[2-phenylethyl]aminophenylsulfonyloxy) benzimidazole-2-carbamate], the IC50 is over 3000 nM in experiment [1] and over 10000 nM in experiment [2].
As for `COC(=O)CCC(=O)Nc1nc2cc(OS(=O)(=O)c3ccc(-n4ccnc4)cc3)ccc2[nH]1` [Example 23, N-[5-(4-Imidazol-1-yl-benzenesulfonyloxy)-1H-benzoimidazol-2-yl]-succinamic acid methyl ester], the values for the IC50 in experiment [1] and in experiment [2] were 3100 nM and 400 nM, respectively.
For `CC(C)(C)OC(=O)NCC(=O)Nc1nc2cc(OS(=O)(=O)c3ccc(NC4CCCC4)cc3)ccc2[nH]1` [Example 24, 4-Cyclopentylamino-benzenesulfonic acid 2-(2-tert-butoxycarbonylamino-acetylamino)-1H-benzoimidazol-5-yl ester] the same measures were 600 nM and 400 nM.
Regarding `COC(=O)CCC(=O)Nc1nc2cc(OS(=O)(=O)c3ccc(NC4CCCC4)cc3)ccc2[nH]1` [Example 25, N-[5-(4-Cyclopentylamino-benzenesulfonyloxy)-1H-benzoimidazol-2-yl]-succinamic acid methyl ester], the IC50 in experiment [1] was 130 nM; in experiment [2], 80 nM.
For `COC(=O)CCCC(=O)Nc1nc2cc(OS(=O)(=O)c3ccc(NC4CCCC4)cc3)ccc2[nH]1` [Example 26, 4-[5-(4-Cyclopentylamino-benzenesulfonyloxy)-1H-benzoimidazol-2-ylcarbamoyl]-butyric acid methyl ester] the same measures were 680 nM and 130 nM.
The like results for `O=C(Nc1nc2cc(OS(=O)(=O)c3ccc(NC4CCCC4)cc3)ccc2[nH]1)C1CC1` [Example 27, 4-Cyclopentylamino-benzenesulfonic acid 2-(cyclopropanecarbonyl-amino)-1H-benzoimidazol-5-yl ester] were, in that order, 600 nM and 42 nM.
The like results for `COCC(=O)Nc1nc2cc(OS(=O)(=O)c3ccc(NC4CCCC4)cc3)ccc2[nH]1` [Example 28, 4-Cyclopentylamino-benzenesulfonic acid 2-(2-methoxy-acetylamino)-1H-benzoimidazol-5-yl ester] were, in that order, 1030 nM and 600 nM.
As to `CN(C)CC(=O)Nc1nc2cc(OS(=O)(=O)c3ccc(NC4CCCC4)cc3)ccc2[nH]1` [Example 29, 4-Cyclopentylamino-benzenesulfonic acid 2-(2-dimethylamino-acetylamino)-1H-benzoimidazol-5-yl ester], the IC50 was 1700 nM in experiment [1] and 600 nM in experiment [2].
With `CNC(=O)Nc1nc2cc(OS(=O)(=O)c3ccc(-n4ccnc4)cc3)ccc2[nH]1` [Example 30, N-[5-(4-[imidazolyl]-phenylsulfonyloxy)-1H-benzimidazole-2-yl]-methylurea], the IC50 in experiment [1] stood at 1800 nM; in experiment [2], 900 nM.
Regarding `CNC(=O)Nc1nc2cc(OS(=O)(=O)c3ccc(NC4CCCC4)cc3)ccc2[nH]1` [Example 31, N-[5-(4-cyclopentylaminophenylsulfonyloxy)-1H-benzimidazole-2-yl]-methylurea], the IC50 amounted to 500 nM in experiment [1] and 100 nM in experiment [2].
For the compound `CN(C)C(=O)Nc1nc2cc(OS(=O)(=O)c3ccc(NC4CCCC4)cc3)ccc2[nH]1` [Example 32, N-[5-(4-cyclopentylaminophenylsulfonyloxy)-1H-benzimidazole-2-yl]-dimethylurea], the values for the IC50 in experiment [1] and in experiment [2] were over 5000 nM and 1100 nM, respectively.
In the case of `O=C(Nc1nc2cc(OS(=O)(=O)c3ccc(NC4CCCC4)cc3)ccc2[nH]1)NC1CC1` [Example 33, 4-Cyclopentylamino-benzenesulfonic acid 2-(3-cyclopropyl-ureido)-1H-benzoimidazol-5-yl ester], the IC50 in experiment [1] is 640 nM; in experiment [2] it was 60 nM.
For `CC(C)NC(=O)Nc1nc2cc(OS(=O)(=O)c3ccc(NC4CCCC4)cc3)ccc2[nH]1` [Example 34, 4-Cyclopentylamino-benzenesulfonic acid 2-(3-isopropyl-ureido)-1H-benzoimidazol-5-yl ester] the same measures were 1180 nM and 120 nM.
The like results for `CCCCNC(=O)Nc1nc2cc(OS(=O)(=O)c3ccc(NC4CCCC4)cc3)ccc2[nH]1` [Example 35, 4-Cyclopentylamino-benzenesulfonic acid 2-(3-butyl-ureido)-1H-benzoimidazol-5-yl ester] were, in that order, 1100 nM and 120 nM.
The like results for `O=C(Nc1nc2cc(OS(=O)(=O)c3ccc(-n4ccnc4)cc3)ccc2[nH]1)Nc1ccccc1F` [Example 36, 4-Imidazol-1-yl-benzenesulfonic acid 2-[3-(2-fluoro-phenyl)-ureido]-1H-benzoimidazol-5-yl ester] were, in that order, 770 nM and 530 nM.
For `O=C(Nc1nc2cc(OS(=O)(=O)c3ccc(NC4CCCC4)cc3)ccc2[nH]1)Nc1ccccc1F` [Example 37, 4-Cyclopentylamino-benzenesulfonic acid 2-[3-(2-fluoro-phenyl)-ureido]-1H-benzoimidazol-5-yl ester], the IC50 turned out to be 570 nM in experiment [1] and 450 nM in experiment [2].
For `COc1cccc(NC(=O)Nc2nc3cc(OS(=O)(=O)c4ccc(NC5CCCC5)cc4)ccc3[nH]2)c1` [Example 38, 4-Cyclopentylamino-benzenesulfonic acid 2-[3-(3-methoxy-phenyl)-ureido]-1H-benzoimidazol-5-yl ester] the same measures were 1250 nM and 4300 nM.
The like results for `COc1ccc(NC(=O)Nc2nc3cc(OS(=O)(=O)c4ccc(NC5CCCC5)cc4)ccc3[nH]2)cc1` [Example 39, 4-Cyclopentylamino-benzenesulfonic acid 2-[3-(4-methoxy-phenyl)-ureido]-1H-benzoimidazol-5-yl ester] were, in that order, 1620 nM and 290 nM.
`O=C(Nc1ccc(Cl)cc1)Nc1nc2cc(OS(=O)(=O)c3ccc(NC4CCCC4)cc3)ccc2[nH]1` [Example 40, 4-Cyclopentylamino-benzenesulfonic acid 2-[3-(4-chloro-phenyl)-ureido]-1H-benzoimidazol-5-yl ester]: the IC50 was determined as 3710 nM in experiment [1] and 1090 nM in experiment [2].
For `O=C(NCc1cccc(F)c1)Nc1nc2cc(OS(=O)(=O)c3ccc(NC4CCCC4)cc3)ccc2[nH]1` [Example 41, 4-Cyclopentylamino-benzenesulfonic acid 2-[3-(3-fluoro-benzyl)-ureido]-1H-benzoimidazol-5-yl ester] the same measures were 2800 nM and 60 nM.
